Experiment [1] has as its target human emopamil binding protein and human 7-dehydrocholesterol reductase (hEBP-DHCR7) (Homo sapiens (Human), UniProt Q15125). Description: hEBP-DHCR7 radioligand binding assay (filter binding, membranes of co-expressing HEK293 cells). As to conditions: competition with [3H] radioligand, 8 doses 0.06 to 5000 nM, Ki calculated from IC50. The procedure, abridged: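 Compound, either single dose 1 μM or eight 5-fold dilutions from 0.06 to 5000 nM, competed with a [3H]-labelled ligand added at 25 nM for binding to co-expressing HEK293 membranes. IC50 came from nonlinear regression, with full block and DMSO as controls, then Cheng–Prusoff conversion to Ki.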

Experiment [2] deals with EpiSC-derived OPCs. Description: In vitro phenotypic screening of OPCs, MBP high-content imaging (percentage of oligodendrocytes). The class given is cell-based, mouse. Conditions: Mus musculus, 72 h, 3 days, MBP stain, dose-response 0.5 nM to 1000 nM; read-out: OPC EC50. The procedure, abridged: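 EC50 was fitted by Hill equation to the MBP-positive oligodendrocyte percentage from imaging of fixed, MBP- and DAPI-stained cells. Treatment lasted 3 days at 37 °C, final doses 0.5–1000 nM over 8 points, in growth factor-free N2B27. Cells were EpiSC-derived OPCs, tested in at least two independent platings.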

Experiment [3] concerns zymostenol accumulation (EBP) in EpiSC-derived OPCs. As to the kind of experiment: GC/MS-based sterol profiling, zymostenol accumulation in EpiSC-derived OPCs. The class given is cell-based, mouse. As to conditions: Mus musculus, 24 h, EpiSC-derived OPCs, 24 hr, 8 doses from 0.15 nM to 333 nM; read-out: Mouse Zymostenol GCMS EC50. The procedure, abridged: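 Zymostenol level is expressed relative to that after 24 h with 100 nM positive-control reference, measured by full-scan GC/MS (m/z 458) with cholesterol-d7 internal standard after BSTFA derivatisation. Cells were EpiSC-derived OPCs, 100,000/well in N2B27 without growth factors, treated 24 h, from two or more independent platings.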

Each structure is given as a SMILES string.

Sequence of human emopamil binding protein and human 7-dehydrocholesterol reductase (hEBP-DHCR7) (Q15125 whole entry): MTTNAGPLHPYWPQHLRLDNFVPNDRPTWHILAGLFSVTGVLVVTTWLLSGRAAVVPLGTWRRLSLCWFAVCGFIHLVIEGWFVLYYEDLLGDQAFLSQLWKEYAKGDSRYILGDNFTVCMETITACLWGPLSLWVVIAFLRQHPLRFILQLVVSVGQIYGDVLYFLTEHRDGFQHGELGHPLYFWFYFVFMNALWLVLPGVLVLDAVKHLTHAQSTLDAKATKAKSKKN

As a reminder, the Ki is the equilibrium dissociation constant of an inhibitor or competing ligand from its target. Usually EC50 stands for the concentration giving half of the maximal effect. As for `CC(C)n1nc(-c2cccc(C(F)(F)F)n2)nc1[C@H]1[C@@H]2C[C@H](N3CCOC[C@H]3C)C[C@@H]21` [Compound 73, (R)-4-((1R,3r,5S,6R)-6-(1-isopropyl-3-(6-(trifluoromethyl)pyridin-2-yl)-1H-1,2,4-triazol-5-yl)bicyclo[3.1.0]hexan-3-yl)-3-methylmorpholine], in experiment [1], the Ki is 109 nM. Besides, the figures for the EC50 in experiment [2] and in experiment [3] were 8.41 nM and 3.95 nM, respectively.

Turning to `CC(C)n1nc(-c2cccc(OC(F)F)c2)nc1[C@H]1[C@@H]2C[C@H](N3CCOC[C@H]3C)C[C@@H]21` [Compound 76, (R)-4-((1R,3r,5S,6R)-6-(3-(3-(Difluoromethoxy)phenyl)-1-isopropyl-1H-1,2,4-triazol-5-yl)bicyclo[3.1.0]hexan-3-yl)-3-methylmorpholine], the inhibition constant Ki in experiment [1] was 15 nM. Besides, the EC50 in experiment [2] was 1.56 nM; in experiment [3], 1.18 nM.

Consider `COCCN1CCN([C@H]2CC[C@@H](c3nc(-c4ccc(C(F)(F)F)nc4)nn3C(C)C)C2)CC1` [Compound 83, 1-((1S,3R)-3-(1-Isopropyl-3-(6-(trifluoromethyl)pyridin-3-yl)-1H-1,2,4-triazol-5-yl)cyclopentyl)-4-(2-methoxyethyl) piperazine], for which the Ki in experiment [1] was 10.9 nM. Also, the EC50 in experiment [2] came to 78.4 nM; in experiment [3] it was 12.5 nM.

Consider `CC(C)n1nc(-c2cnc(C(F)(F)F)nc2)nc1[C@H]1CC[C@@H](N2CCOCC2)C1` [Compound 95, 4-((1R,3S)-3-(1-Isopropyl-3-(2-(trifluoromethyl)pyrimidin-5-yl)-1H-1,2,4-triazol-5-yl)cyclopentyl)morpholine], for which the Ki in experiment [1] is 33.3 nM. The values for the EC50 in experiment [2] and in experiment [3] were 136 nM and 20.3 nM, respectively.

Turning to `CC(C)n1nc(-c2cnc(C(F)(F)F)nc2)cc1[C@H]1[C@@H]2C[C@H](N3CCOC[C@H]3C)C[C@@H]21` [Compound 97, (R)-4-((1R,3r,5S,6R)-6-(1-Isopropyl-3-(2-(trifluoromethyl)pyrimidin-5-yl)-1H-pyrazol-5-yl)bicyclo[3.1.0]hexan-3-yl)-3-methylmorpholine], the Ki in experiment [1] was 15.1 nM. Further, the EC50 in experiment [2] turned out to be 11.4 nM; in experiment [3], 3.87 nM.

Consider `CC(C)n1nc(-c2ccnc(C(F)(F)F)n2)cc1[C@H]1[C@@H]2C[C@@H](N3CCOCC3)C[C@@H]21` [Compound 98, 4-((1R,3s,5S,6r)-6-(1-Isopropyl-3-(2-(trifluoromethyl)pyrimidin-4-yl)-1H-pyrazol-5-yl)bicyclo[3.1.0]hexan-3-yl)morpholine], for which, in experiment [1], the inhibitory constant (Ki) is 11.7 nM. Also, the EC50 stood at 30.8 nM in experiment [2] and 4.86 nM in experiment [3].

For the compound `CC(C)n1nc(-c2ccnc(C(F)(F)F)n2)cc1[C@H]1[C@@H]2C[C@H](N3CCOC[C@@H]3C)C[C@@H]21` [Compound 101, (S)-4-((1R,3r,5S,6S)-6-(1-Isopropyl-3-(2-(trifluoromethyl)pyrimidin-4-yl)-1H-pyrazol-5-yl)bicyclo[3.1.0]hexan-3-yl)-3-methylmorpholine], the Ki in experiment [1] is 7.22 nM. For the same compound, the EC50 in experiment [2] was found to be 2.02 nM; in experiment [3] it was 1.1 nM.

`CC(C)n1nc(-c2ccnc(C(F)(F)F)n2)cc1[C@H]1[C@@H]2C[C@H](N3CCOC[C@H]3C)C[C@@H]21` [Compound 103, (R)-4-((1R,3r,5S,6S)-6-(1-Isopropyl-3-(2-(trifluoromethyl)pyrimidin-4-yl)-1H-pyrazol-5-yl)bicyclo[3.1.0]hexan-3-yl)-3-methylmorpholine]: the Ki in experiment [1] is 36.1 nM. Moreover, the EC50 was 93.4 nM in experiment [2] and 9.34 nM in experiment [3].

On to `CC(C)n1nc(-c2ccc(C(F)(F)F)nc2)nc1[C@@H]1CC[C@@H](N2CCOCC2)C1` [Compound 104, 4-((1R,3R)-3-(1-Isopropyl-3-(6-(trifluoromethyl)pyridin-3-yl)-1H-1,2,4-triazol-5-yl)cyclopentyl)morpholine], for which, in experiment [1], the Ki was 19.2 nM. Also, the results for the EC50 in experiment [2] and in experiment [3] were 433 nM and 52 nM, respectively.

With `CC(C)n1nc(-c2ccc(C(F)(F)F)nc2)nc1[C@@H]1CC[C@H](N2CCOCC2)C1` [Compound 105, 4-((1S,3R)-3-(1-Isopropyl-3-(6-(trifluoromethyl)pyridin-3-yl)-1H-1,2,4-triazol-5-yl)cyclopentyl)morpholine], the Ki in experiment [1] was 8.89 nM. The EC50 in experiment [2] was 11.7 nM; in experiment [3] it was 3.15 nM.

Turning to `CC(C)n1nc(-c2cc(C(F)(F)F)ncn2)cc1[C@H]1[C@@H]2C[C@H](N3CCOC[C@H]3C)C[C@@H]21` [Compound 106, (R)-4-((1R,3r,5S,6R)-6-(1-Isopropyl-3-(6-(trifluoromethyl)pyrimidin-4-yl)-1H-pyrazol-5-yl)bicyclo[3.1.0]hexan-3-yl)-3-methylmorpholine], the Ki in experiment [1] is 15.1 nM. In addition, the EC50 was found to be 11.4 nM in experiment [2] and 3.87 nM in experiment [3].

Take `CC(C)n1nc(-c2cncc(C(F)(F)F)n2)cc1[C@H]1[C@@H]2C[C@@H](N3CCOCC3)C[C@@H]21` [Compound 107, 4-((1R,3s,5S,6r)-6-(1-Isopropyl-3-(6-(trifluoromethyl)pyrazin-2-yl)-1H-pyrazol-5-yl)bicyclo[3.1.0]hexan-3-yl)morpholine]: the Ki in experiment [1] is 11.7 nM. Besides, the EC50 in experiment [2] came to 30.8 nM; in experiment [3], 4.86 nM.

On to `CC(C)n1nc(-c2cncc(C(F)(F)F)c2)nc1[C@H]1[C@@H]2C[C@H](N3CCOC[C@H]3C)C[C@@H]21` [Compound 120, (R)-4-((1R,3r,5S,6R)-6-(1-Isopropyl-3-(5-(trifluoromethyl)pyridin-3-yl)-1H-1,2,4-triazol-5-yl)bicyclo[3.1.0]hexan-3-yl)-3-methylmorpholine], for which the Ki in experiment [1] is 16 nM. In addition, the EC50 in experiment [2] is 2.8 nM; in experiment [3] it was 1.25 nM.

For the compound `CC[C@@H]1CN([C@@H]2CC[C@H](c3nc(-c4ccc(C(F)(F)F)nc4)nn3C(C)C)C2)CCO1` [Compound 127, (R)-2-Ethyl-4-((1R,3S)-3-(1-isopropyl-3-(6-(trifluoromethyl)pyridin-3-yl)-1H-1,2,4-triazol-5-yl)cyclopentyl)morpholine], in experiment [1], the Ki was 57.1 nM. Further, the EC50 in experiment [2] turned out to be 6 nM; in experiment [3], 1.32 nM.

Take `CC(C)n1nc(-c2cnc(C(F)(F)F)nc2)nc1[C@H]1CC[C@@H](N2CCO[C@H](C)C2)C1` [Compound 144, (R)-4-((1R,3S)-3-(1-isopropyl-3-(2-(trifluoromethyl)pyrimidin-5-yl)-1H-1,2,4-triazol-5-yl)cyclopentyl)-2-methylmorpholine]: the Ki in experiment [1] is 325 nM. Besides, the EC50 was determined as 48 nM in experiment [2] and 5.7 nM in experiment [3].

As for `CC[C@@H]1CN([C@H]2CC[C@@H](c3nc(-c4cnc(C(F)(F)F)nc4)nn3C(C)C)C2)CCO1` [Compound 152, (R)-2-Ethyl-4-((1S,3R)-3-(1-isopropyl-3-(2-(trifluoromethyl)pyrimidin-5-yl)-1H-1,2,4-triazol-5-yl)cyclopentyl)morpholine], the Ki in experiment [1] was 3420 nM. Also, the results for the EC50 in experiment [2] and in experiment [3] were 17 nM and 2.14 nM, respectively.

`CC(C)n1nc(-c2ccc(C(F)(F)F)c(F)c2)nc1[C@H]1CC[C@@H](N2CCO[C@H](CF)C2)C1` [Compound 160, (S)-4-((1R,3S)-3-(3-(3-Fluoro-4-(trifluoromethyl)phenyl)-1-isopropyl-1H-1,2,4-triazol-5-yl)cyclopentyl)-2-(fluoromethyl)morpholine]: the inhibition constant Ki in experiment [1] is 32.7 nM. In addition, the EC50 in experiment [2] came out at 32.7 nM; in experiment [3], 1.03 nM.

On to `CC(C)n1nc(-c2cnc(C(F)(F)F)nc2)nc1[C@H]1CC[C@@H](N2CCO[C@H](CF)C2)C1` [Compound 161, (S)-2-(Fluoromethyl)-4-((1R,3S)-3-(1-isopropyl-3-(2-(trifluoromethyl)pyrimidin-5-yl)-1H-1,2,4-triazol-5-yl)cyclopentyl)morpholine], for which the Ki in experiment [1] was 89.3 nM. Moreover, the EC50 in experiment [2] amounted to 89.3 nM; in experiment [3], 24 nM.

On to `CC(C)n1nc(-c2cncc(C(F)(F)F)c2)nc1[C@H]1[C@@H]2C[C@@H](N3CCO[C@H](C)C3)C[C@@H]21` [Compound 162, (R)-4-((1R,3s,5S,6R)-6-(1-Isopropyl-3-(5-(trifluoromethyl)pyridin-3-yl)-1H-1,2,4-triazol-5-yl)bicyclo[3.1.0]hexan-3-yl)-2-methylmorpholine], for which the Ki in experiment [1] was 838 nM. The 50% effective concentration (EC50) in experiment [2] was found to be 838 nM; in experiment [3] it was 371 nM.

For `CC(C)n1nc(-c2cncc(C(F)(F)F)c2)nc1[C@H]1[C@@H]2C[C@H](N3CCO[C@H](C)C3)C[C@@H]21` [Compound 163, (R)-4-((1R,3r,5S,6R)-6-(1-Isopropyl-3-(5-(trifluoromethyl)pyridin-3-yl)-1H-1,2,4-triazol-5-yl)bicyclo[3.1.0]hexan-3-yl)-2-methylmorpholine], the Ki in experiment [1] is 32.8 nM. For the same compound, the EC50 in experiment [2] turned out to be 32.8 nM; in experiment [3] it was 4.36 nM.

As to `CC(C)n1nc(-c2cccc(C(F)(F)F)c2)cc1[C@H]1[C@@H]2C[C@H](N3CCOCC3)C[C@@H]21` [Compound 170, 4-((1R,3r,5S,6r)-6-(1-Isopropyl-3-(3-(trifluoromethyl)phenyl)-1H-pyrazol-5-yl)bicyclo[3.1.0]hexan-3-yl)morpholine], the Ki in experiment [1] was 6.87 nM. Further, the values for the EC50 in experiment [2] and in experiment [3] were 5.33 nM and 2.98 nM, respectively.

The values are drawn from patent US20260008775A1, “AZOLE MODULATORS OF CHOLESTEROL BIOSYNTHESIS AND THEIR USE FOR PROMOTING REMYELINATION” (GENENTECH, INC., priority 2022, published 2026).
